Experimental data: patent publication US7741064B2, “Materials and methods relating to G-protein coupled receptor oligomers” (The University Court of the University of Glasgow, priority 2003, dated 2010)
Where a chain is given by its changes, count along the chain named. “Also recorded” adds a separate entry of the source.

Assays:
[1] = molecular target: T1, Leu133Asp histamine H1 receptor-G11α co-expressed with α1b-adrenoceptor-Gly208Ala G11α (UniProt P18841+P35367, L133D); assay: [Ca2+]i imaging in EF88 cells; assay type: cell-based; conditions: phenylephrine 10 μM, histamine 1 mM (FIG. 7A)
T1 construct: the full length c-myc-tagged α1b-adrenoceptor-G11α fusion protein; expressed in transfected cells; host or cells: EF88 mouse embryo fibroblasts (Gqα/G11α double knock-out)
Description: EF88 cells were grown in DMEM supplemented with 10% (v/v) heat inactivated foetal bovine serum and L-glutamine (1 mM) in a 95% air and 5% CO2 atmosphere at 37° C. A portion of the cells harvested during trypsinization were plated on to glass coverslips and after a 24 h growth period they were transfected using LipofectAMINE (Life Technologies Inc.) according to the manufacturers' instructions. After 3 h cells were washed twice with OPTIMEM 1 and then cultured in DMEM growth medium for a further 24 h. A total of 3 μg of pCDNA3 containing the relevant cDNA species were used to transfect each coverslip. Transfected EF88 cells were loaded with the Ca^2+-sensitive dye Fura-2 by incubation (15-20 min, 37° C.) under reduced light in DMEM growth medium containing the dye's membrane-permanent acetoxymethylester form (1.5 μM).

[2] = molecular target: histamine H1 receptor-G11α fusion co-expressed with isolated Leu151Asp α1b-adrenoceptor (UniProt P21278+P35367); conditions: in comparison to membranes expressing the same level of only the histamine H1 receptor-G11α fusion; 1 mM histamine (FIG. 12A)
[3] = molecular target: histamine H1 receptor-Gly208Ala G11α fusion protein (UniProt P21278+P35367, G208A); conditions: HEK293 membranes; 1 mM histamine (FIG. 5(2))
Description: (§1) [^35S]GTPγS binding experiments were initiated by the addition of membranes containing defined amounts of the fusion constructs (see Results for details) to an assay buffer (20 mM HEPES (pH 7.4), 3 mM MgCl2, 100 mM NaCl, 1 μM guanosine 5′-diphosphate, 0.2 mM ascorbic acid, 50 nCi [^35S]GTPγS) containing the indicated concentrations of receptor ligands. Non-specific binding was determined in the same conditions but in the presence of 100 μM GTPγS. Reactions were incubated for 15 min at 30° C. and were terminated by the addition of 0.5 ml of ice cold buffer, containing 20 mM HEPES (pH 7.4), 3 mM MgCl2 and 100 mM NaCl.
(§2) Finally, the immunocomplexes were washed twice with solubilization buffer, and bound [^35S]GTPγS measured by liquid-scintillation spectrometry.

[4] = molecular target: Leu133Asp histamine H1 receptor-G11α fusion protein (Homo sapiens, UniProt P35367, L133D); conditions: HEK293 membranes; 1 mM histamine (FIG. 5(3))
Description: as §1, §2

[5] = molecular target: wild type histamine H1 receptor-G11α fusion protein (Homo sapiens, UniProt P35367); conditions: HEK293 membranes; 1 mM histamine (FIG. 5(1))
Description: as §1, §2

[6] = molecular target: co-expressed histamine H1 receptor-Gly208AlaG11α + Leu133Asp histamine H1 receptor-G11α (Homo sapiens, UniProt P35367, L133D); conditions: HEK293 membranes; two mutants co-expressed; 1 mM histamine (FIG. 5(4))
Description: as §1, §2

[7] = molecular target: histamine H1 receptor-G11α co-transfected with Leu151Asp α1b-adrenoceptor (UniProt P21278+P35367); conditions: EF88 cells; 1 mM histamine; versus histamine H1 receptor-G11α alone (FIG. 12B)
[8] = molecular target: T2, Leu151Aspα1b-adrenoceptor-G11α co-expressed with histamine H1 receptor-Gly208Ala G11α (UniProt P18841+P35367, L151D); assay type: cell-based; conditions: EF88 cells; phenylephrine 10 μM, histamine 1 mM (FIG. 7B)
T2 construct: the full length c-myc-tagged α1b-adrenoceptor-G11α fusion protein; expressed in transfected cells; host or cells: EF88 mouse embryo fibroblasts (Gqα/G11α double knock-out)

[9] = molecular target: T3, Leu151Aspα1b-adrenoceptor-G11α fusion protein (Mesocricetus auratus, UniProt P18841, L151D); assay: [35S]GTPγS binding, membranes of HEK293 cells; assay type: biochemical; conditions: 10 μM phenylephrine (FIG. 4A(3))
T3 construct: the full length c-myc-tagged α1b-adrenoceptor-G11α fusion protein; expressed in transfected cells; host or cells: HEK293 (membranes)
T3 sequence (P18841 1-515 L151D): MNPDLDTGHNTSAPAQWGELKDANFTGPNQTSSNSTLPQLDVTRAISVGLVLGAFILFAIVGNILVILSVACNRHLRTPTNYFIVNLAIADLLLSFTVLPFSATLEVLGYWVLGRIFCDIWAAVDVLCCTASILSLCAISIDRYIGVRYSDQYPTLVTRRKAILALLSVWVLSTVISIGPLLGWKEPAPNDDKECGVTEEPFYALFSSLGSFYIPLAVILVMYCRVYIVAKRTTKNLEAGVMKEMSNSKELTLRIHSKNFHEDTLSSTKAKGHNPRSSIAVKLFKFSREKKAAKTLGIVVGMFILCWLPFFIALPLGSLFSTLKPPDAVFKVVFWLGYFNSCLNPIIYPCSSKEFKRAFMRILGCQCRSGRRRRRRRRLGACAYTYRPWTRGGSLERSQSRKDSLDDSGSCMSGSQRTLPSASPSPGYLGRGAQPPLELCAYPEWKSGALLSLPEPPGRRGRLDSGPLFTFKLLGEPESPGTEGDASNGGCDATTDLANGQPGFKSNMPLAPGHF
Description: (§3) [^35S]GTPγS binding experiments were initiated by the addition of membranes containing defined amounts of the fusion constructs (see Results for details) to an assay buffer (20 mM HEPES (pH 7.4), 3 mM MgCl2, 100 mM NaCl, 1 μM guanosine 5′-diphosphate, 0.2 mM ascorbic acid, 50 nCi [^35S]GTPγS) containing the indicated concentrations of receptor ligands. Non-specific binding was determined in the same conditions but in the presence of 100 μM GTPγS. Reactions were incubated for 15 min at 30° C. and were terminated by the addition of 0.5 ml of ice cold buffer, containing 20 mM HEPES (pH 7.4), 3 mM MgCl2 and 100 mM NaCl. The samples were centrifuged at 16,000 g for 15 min at 4° C., and the resulting pellets were resuspended in solubilization buffer (100 mM Tris, 200 mM NaCl, 1 mM EDTA, 1.25% Nonidet P-40) plus 0.2% sodium dodecylsulfate. Samples were precleared with Pansorbin (Calbiochem), followed by immunoprecipitation with CQ antiserum (Mitchell et al., 1993).

[10] = molecular target: T4, co-expressed α1b-adrenoceptor-Gly208AlaG11α + Leu151Aspα1b-adrenoceptor-G11α (Mesocricetus auratus, UniProt P18841, L151D); assay: [35S]GTPγS binding, membranes of HEK293 cells; assay type: biochemical; conditions: two non-functional mutants co-expressed, 10 μM phenylephrine (FIG. 4A(4))
T4 construct: the full length c-myc-tagged α1b-adrenoceptor-G11α fusion protein; expressed in transfected cells; host or cells: HEK293 (membranes)
Description: as §3

c-myc-Nt-TM1α1b-G11α = assay: [35S]GTPγS binding recovered in anti-c-myc immunoprecipitates, HEK293 cells; assay type: biochemical; conditions: 10 μM phenylephrine (FIG. 13B)
Description: as §3

[11] = molecular target: T5, wild type α1b-adrenoceptor-G11α fusion protein (Mesocricetus auratus, UniProt P18841); assay: [35S]GTPγS binding, membranes of HEK293 cells; assay type: biochemical; conditions: 10 μM phenylephrine (FIG. 4A)
T5 construct: the full length c-myc-tagged α1b-adrenoceptor-G11α fusion protein; expressed in transfected cells; host or cells: HEK293 (membranes)
T5 sequence (P18841 1-515): T3 sequence (P18841 1-515 L151D) with D151L
Description: as §3

[12] = molecular target: T6, α1b-adrenoceptor-Gly208AlaG11α fusion protein (UniProt P18841+P21278, G208A); assay: [35S]GTPγS binding, membranes of HEK293 cells; assay type: biochemical; conditions: 10 μM phenylephrine (FIG. 4A(2))
T6 construct: the full length c-myc-tagged α1b-adrenoceptor-G11α fusion protein; expressed in transfected cells; host or cells: HEK293 (membranes)
Description: as §3

T2 sequence (P21278 whole entry G208A, one chain of several, the tested form may be a part): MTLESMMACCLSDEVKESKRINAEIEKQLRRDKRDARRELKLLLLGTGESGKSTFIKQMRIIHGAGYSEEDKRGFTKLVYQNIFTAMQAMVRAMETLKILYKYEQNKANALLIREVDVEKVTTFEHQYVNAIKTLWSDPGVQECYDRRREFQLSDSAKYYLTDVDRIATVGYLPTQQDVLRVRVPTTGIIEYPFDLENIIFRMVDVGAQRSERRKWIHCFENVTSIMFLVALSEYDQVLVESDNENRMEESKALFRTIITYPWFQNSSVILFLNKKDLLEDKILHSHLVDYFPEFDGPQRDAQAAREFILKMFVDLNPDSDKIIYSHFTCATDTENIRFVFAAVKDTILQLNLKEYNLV
T2 sequence (P21278 whole entry, stated change not applied, one chain of several, the tested form may be a part): as the sequence (P21278 whole entry G208A, one chain of several, the tested form may be a part) above, with A208G counted along it
T2 sequence (P35367 whole entry, one chain of several, the tested form may be a part): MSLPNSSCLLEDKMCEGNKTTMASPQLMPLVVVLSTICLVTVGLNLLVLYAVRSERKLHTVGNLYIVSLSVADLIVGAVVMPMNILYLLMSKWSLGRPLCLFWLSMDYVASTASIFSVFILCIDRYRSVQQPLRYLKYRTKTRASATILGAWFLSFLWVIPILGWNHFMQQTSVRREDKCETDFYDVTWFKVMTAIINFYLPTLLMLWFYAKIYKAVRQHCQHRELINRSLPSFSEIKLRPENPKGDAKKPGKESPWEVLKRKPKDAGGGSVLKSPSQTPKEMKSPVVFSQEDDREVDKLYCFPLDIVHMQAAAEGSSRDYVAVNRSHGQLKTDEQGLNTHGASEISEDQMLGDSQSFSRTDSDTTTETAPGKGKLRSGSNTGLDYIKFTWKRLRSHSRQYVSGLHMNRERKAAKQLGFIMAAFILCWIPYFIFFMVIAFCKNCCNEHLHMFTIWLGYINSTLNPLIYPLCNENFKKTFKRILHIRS
T1 sequence (P35367 whole entry L133D, the tested form may be a part): as the sequence (P35367 whole entry, one chain of several, the tested form may be a part) above, with L133D counted along it
T1 sequence (P21278 whole entry partner, the tested form may be a part): as the sequence (P21278 whole entry G208A, one chain of several, the tested form may be a part) above, with A208G counted along it
T1 sequence (P18841 whole entry, the tested form may be a part): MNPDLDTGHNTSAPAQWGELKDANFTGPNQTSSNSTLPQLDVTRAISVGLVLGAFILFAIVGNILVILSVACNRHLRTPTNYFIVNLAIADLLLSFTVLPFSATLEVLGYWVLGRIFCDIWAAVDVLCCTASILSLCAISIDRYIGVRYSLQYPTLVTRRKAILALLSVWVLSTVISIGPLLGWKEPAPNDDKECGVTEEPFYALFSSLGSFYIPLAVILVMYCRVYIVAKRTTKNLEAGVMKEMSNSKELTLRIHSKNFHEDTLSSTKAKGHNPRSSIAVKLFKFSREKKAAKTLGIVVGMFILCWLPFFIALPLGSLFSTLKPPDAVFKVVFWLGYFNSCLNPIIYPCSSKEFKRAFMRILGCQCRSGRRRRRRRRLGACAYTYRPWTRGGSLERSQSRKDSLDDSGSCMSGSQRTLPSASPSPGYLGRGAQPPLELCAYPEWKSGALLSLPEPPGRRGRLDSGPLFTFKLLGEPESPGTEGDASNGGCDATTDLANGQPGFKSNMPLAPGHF
T1 sequence (P21278 whole entry G208A partner, the tested form may be a part): as the sequence (P21278 whole entry G208A, one chain of several, the tested form may be a part) above
Sequence of histamine H1 receptor-Gly208Ala G11α fusion protein (P35367+P21278 fused P21278:G208A): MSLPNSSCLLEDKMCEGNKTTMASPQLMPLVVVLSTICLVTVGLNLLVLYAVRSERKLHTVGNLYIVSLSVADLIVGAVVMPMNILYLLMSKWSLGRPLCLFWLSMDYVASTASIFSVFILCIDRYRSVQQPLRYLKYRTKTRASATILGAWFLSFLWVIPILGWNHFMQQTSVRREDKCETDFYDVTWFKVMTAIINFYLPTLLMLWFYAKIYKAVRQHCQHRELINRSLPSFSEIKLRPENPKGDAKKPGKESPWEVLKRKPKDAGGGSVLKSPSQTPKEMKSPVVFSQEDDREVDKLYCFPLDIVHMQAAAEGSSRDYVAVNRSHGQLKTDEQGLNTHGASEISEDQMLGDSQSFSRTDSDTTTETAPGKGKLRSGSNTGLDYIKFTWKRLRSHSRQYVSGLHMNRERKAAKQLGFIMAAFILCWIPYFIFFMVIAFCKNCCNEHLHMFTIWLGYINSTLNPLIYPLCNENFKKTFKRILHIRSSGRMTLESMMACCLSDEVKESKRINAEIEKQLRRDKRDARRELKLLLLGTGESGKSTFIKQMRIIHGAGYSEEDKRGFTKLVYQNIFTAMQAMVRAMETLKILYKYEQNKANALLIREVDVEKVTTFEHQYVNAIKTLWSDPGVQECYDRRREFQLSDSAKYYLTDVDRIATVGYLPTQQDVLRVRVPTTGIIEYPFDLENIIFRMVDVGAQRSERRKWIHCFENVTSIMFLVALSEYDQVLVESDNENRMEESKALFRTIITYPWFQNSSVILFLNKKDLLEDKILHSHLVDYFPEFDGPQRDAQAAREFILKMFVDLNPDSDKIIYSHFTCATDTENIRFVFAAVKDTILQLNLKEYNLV
Sequence of histamine H1 receptor-G11α co-transfected with Leu151Asp α1b-adrenoceptor (P35367+P21278 fused, stated change not applied): as the sequence (P35367+P21278 fused P21278:G208A) above, with A698G counted along it

histamine stimulation of [35S]GTPγS binding [2]	stimulation of [35S]GTPγS binding [3]	stimulation of [35S]GTPγS binding [4]	stimulation of [35S]GTPγS binding [5]	agonist activation of the G protein ([35S]GTPγS binding) [6]	histamine stimulation of intracellular [Ca2+] [7]	SMILES	elevation of intracellular [Ca2+] [1]	elevation of intracellular [Ca2+] [8]	stimulation of [35S]GTPγS binding [9]	agonist-mediated binding of [35S]GTPγS [10]	stimulation of [35S]GTPγS binding in anti-c-myc immunoprecipitates (c-myc-Nt-TM1α1b-G11α; co-expressed with the isolated α1b-adrenoceptor)	[35S]GTPγS binding in response to agonist (c-myc-Nt-TM1α1b-G11α; construct expressed alone)	stimulation of the binding of [35S]GTPγS [11]	stimulation of [35S]GTPγS binding [12]
significantly reduced	absent	absent	large stimulation	reconstituted agonist activation	reduced markedly	NCCc1c[nH]cn1 [histamine]	little or no change	caused elevation of intracellular [Ca^2+]; also recorded: elevation of intracellular calcium	–	–	–	–	–	–
–	–	–	–	–	–	CNC[C@H](O)c1cccc(O)c1 [phenylephrine]	able to elevate intracellular [Ca^2+]; also recorded: elevation of intracellular calcium concentration	did not; also recorded: little or no change	unable to stimulate binding	reconstituted phenylephrine-mediated binding	did not result in significant stimulation	did not bind	large stimulation	essentially eliminated
